{"source": "paper PMC4932606", "about": "“Novel stereoselective bufadienolides reveal new insights into the requirements for Na^+, K^+-ATPase inhibition by cardiotonic steroids” (Scientific Reports, 2016)", "key": {"[1]": {"biological_target": "T1, Na+, K+-ATPase from pig kidney microsomal membranes (Sus scrofa, UniProt P05024)", "T1 construct": "Na^+, K^+-ATPase from pig kidney microsomal membranes was purified by differential centrifugation; from tissue; host or cells: pig kidney microsomal membranes", "experiment": "Na+,K+-ATPase inhibition assay (residual ATP hydrolysis after 2 h preincubation with inhibitor);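 for all read-outs here: enzyme preincubated with inhibitor in 40 mM Tris pH 7.0 containing 3 mM MgCl2 and 3 mM Na-phosphate, remaining activity measured as phosphate released from ATP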", "assay_type": "biochemical", "conditions": "for KC (equilibrium constant E•I ↔ E•I*): KC = Fhigh/Flow; for Ki: Ki (dissociation constant of initial binding E + I ↔ E•I), derived from KDiss,high and KC; for percentage of high-affinity component (Fhigh): magnitude of high-affinity component of the inhibition curve; for percentage of low-affinity component (Flow): magnitude of low-affinity component of the inhibition curve; for ratio of KDiss,high values α-isomer:β-isomer: stereoselectivity, α:β of the same pair", "experimental": "The residual rates of ATP hydrolysis were plotted vs. different drug concentrations and analysed by fitting hyperbolic functions corresponding to a dominant high-affinity component and (where appropriate) a second smaller low-affinity component, and the resulting kinetic parameters were shown in Table 1.\nThe solid lines represent hyperbolic fits to the inactivation measured after preincubation of the inhibitors with NKA for 2 hours at 37 °C in the presence of Mg^2+ and Pi.\nNa^+, K^+-ATPase from pig kidney microsomal membranes was purified by differential centrifugation[27]. […] The inhibitory effects of bufadienolides on NKA were determined essentially as previously reported[9][10].\nPreparation and activity assay of Na+,K+-ATPase\nNa+,K+-ATPase from pig kidney microsomal membranes was purified by\ndifferential centrifugation.27 The specific Na,K-ATPase activity was determined\nfrom the difference in the amount of phosphate released in the absence and\n4 mM MgCl2 and 3 mM ATP. The specific activity of the enzyme preparation\nwas approximately 30 µmol ATP hydrolysed/mg protein per min at 37°C.27 The\nphosphorylation capacity is about 2.9 nmol/mg protein and is equal to the\nhigh-affinity ouabain binding capacity.10, 27\nDetails of the kinetic analysis of inhibition\nThe inhibitory effects of bufadienolides on NKA were determined\nessentially as previously reported9, 10. In brief, NKA is preincubated at 37 °C for\n2 hours in the presence of 3 mM MgCl2, 3 mM Na-phosphate and 40 mM Tris\n(pH 7.0) with increasing concentrations of inhibitor. The residual NKA activity is\nsubsequently determined by 40-fold dilution into a standard ATPase assay\nFor each inhibitor concentration the\nresidual activity was determined in two or three independent experiments and\nthe error bars in Fig. 4 indicate the standard deviation.\n(2) Detailed explanation of the kinetic analysis of inhibition\nThe interaction between bufalins (I) and Na+,K+-ATPase (E) is interpreted as\nrelatively slow equilibrium.\nThe binding of I to E is described by a dissociation constant\nThe conformational change\nis described by an equilibrium constant\nAfter equilibrium is attained by preincubation of the enzyme and inhibitor,\nthe residual Na+,K+-ATPase activity is measured by a 40-fold dilution into the\nassay medium for 2 min. It is assumed that the dilution leads to an immediate\ndissociation of E•I into E + I, and it is also assumed that the conformational\nchange E•I ↔ E•I* is slow on the 2-minutes time scale of the functional assay.\nThe observed decrease in the Na+,K+-ATPase activity is thus an estimate\nof the amount of E•I* present at a given inhibitor concentration in the\npreincubation media, and the observed concentration dependence of\ninactivation is related to Ki as well as KC."}, "Na+,K+-ATPase membranes": {"system": "Na+,K+-ATPase membranes", "experiment": "13C CP-MAS SSNMR of NKA membranes with labelled inhibitor (binding-site saturation estimated from Table 1)", "set-up": "species or system pig", "conditions": "NKA 13 nmol with 16 nmol inhibitor", "description": "We next considered whether the enhanced activity of 5β arises from the additional hydrogen-bonding capacity of the glucose moiety. […] Here we used ^13C cross-polarization magic-angle spinning (CP-MAS) SSNMR to report on the interactions of the glycosidic groups of 5α and 5β with the binding site. […] In Fig. 5 panels C and D are shown ^13C CP-MAS SSNMR spectra of NKA (13 nmol) in the absence of inhibitor (red) and with 5β or 5α (each 16 nmol) (black), respectively. From Table 1 it is estimated that there is 99.5% saturation of the binding site by 5β and about 75% saturation by 5α. For the complex with 5β (Fig. 5C), signals from the inhibitor can clearly be observed around 60–90 ppm; […].\nOne dimensional proton-decoupled ^13C CP-MAS NMR experiments were performed at −25 °C using a Bruker Avance 400 MHz spectrometer at a magnetic field of 9.3 T equipped with a 4 mm HXY probe and (for 2D measurements on membranes) on a Bruker Avance III 700 MHz instrument with a 3.2 mm HXY probe operating in double-resonance mode. Samples were spun at a MAS rate of 5 kHz in a 4 mm zirconium rotor. […] Two-dimensional DARR spectra of solid inhibitors were recorded at room temperature with a 2-ms contact time at a field of 63 kHz, 83 kHz SPINAL-64 decoupling, […] and a 8-kHz proton field matched to the spinning frequency during a 10-ms mixing time. […]"}, "[2]": {"conditions": "KDiss,high, high-affinity component of inhibition curve, preincubation 2 h, 37 °C, Mg2+ and Pi"}, "[3]": {"conditions": "KDiss,low, low-affinity component of inhibition curve, reflects ATPase assay medium"}}, "note": "Values joined by “and” are separate entries in the source; they are usually repeats but may differ in a detail not shown here. Identical values can stand only once."}
{"smiles": "CON[C@@H]1CC[C@@]2(C)[C@H](CC[C@@H]3[C@@H]2CC[C@]2(C)[C@@H](c4ccc(=O)oc4)CC[C@]32O)C1", "note": "[Compound 4α]", "values": [{"measurement": "KC (equilibrium constant E•I ↔ E•I*)", "setting": "[1]", "value": 9.0}, {"measurement": "Kd", "setting": "[1]; [2]", "value": "7.26 ± 0.16", "unit": "µM"}, {"measurement": "Kd", "setting": "[1]; [3]", "value": "524 ± 153", "unit": "µM"}, {"measurement": "Ki", "setting": "[1]", "value": 65, "unit": "µM"}, {"measurement": "percentage of high-affinity component (Fhigh)", "setting": "[1]", "value": 90, "unit": "%"}, {"measurement": "percentage of low-affinity component (Flow)", "setting": "[1]", "value": 10, "unit": "%"}, {"measurement": "ratio of KDiss,high values α-isomer:β-isomer", "setting": "[1]", "value": 145}]}
{"smiles": "CON[C@H]1CC[C@@]2(C)[C@H](CC[C@@H]3[C@@H]2CC[C@]2(C)[C@@H](c4ccc(=O)oc4)CC[C@]32O)C1", "note": "[Compound 4β]", "values": [{"measurement": "KC (equilibrium constant E•I ↔ E•I*)", "setting": "[1]", "value": 6.14}, {"measurement": "Kd", "setting": "[1]; [2]", "value": "< 0.05", "unit": "µM"}, {"measurement": "Kd", "setting": "[1]; KDiss,low, low-affinity component, value in mM", "value": "> 1000", "unit": "µM"}, {"measurement": "Ki", "setting": "[1]", "value": "~0.31 µM and 0.31 µM"}]}
{"smiles": "CON([C@@H]1CC[C@@]2(C)[C@H](CC[C@@H]3[C@@H]2CC[C@]2(C)[C@@H](c4ccc(=O)oc4)CC[C@]32O)C1)[C@@H]1O[C@H](CO)[C@@H](O)[C@H](O)[C@H]1O", "note": "[Compound 5α]", "values": [{"measurement": "KC (equilibrium constant E•I ↔ E•I*)", "setting": "[1]", "value": 49}, {"measurement": "Kd", "setting": "[1]; [2]", "value": "39.2 ± 1.5", "unit": "µM"}, {"measurement": "Ki", "setting": "[1]", "value": 1920, "unit": "µM"}, {"measurement": "percentage of high-affinity component (Fhigh)", "setting": "[1]", "value": 98, "unit": "%"}, {"measurement": "ratio of KDiss,high values α-isomer:β-isomer", "setting": "[1]", "value": 461}, {"measurement": "saturation of the binding site", "setting": "Na+,K+-ATPase membranes", "value": "about 75%"}]}
{"smiles": "CON(C1CCC2(C)C(CCC3C2CCC2(C)C(c4ccc(=O)oc4)CCC32O)C1)C1OC(CO)C(O)C(O)C1O", "note": "(stereo not drawn) [Compound 5β]", "values": [{"measurement": "KC (equilibrium constant E•I ↔ E•I*)", "setting": "[1]", "value": 3.17}, {"measurement": "Kd", "setting": "[1]; [2]", "value": "0.085 ± 0.01", "unit": "µM"}, {"measurement": "Kd", "setting": "[1]; [3]", "value": "67.6 ± 38", "unit": "µM"}, {"measurement": "Ki", "setting": "[1]", "value": "~0.26 µM and 0.26 µM"}, {"measurement": "percentage of high-affinity component (Fhigh)", "setting": "[1]", "value": 76, "unit": "%"}, {"measurement": "saturation of the binding site", "setting": "Na+,K+-ATPase membranes", "value": 99.5, "unit": "%"}]}
{"smiles": "C[C@]12CC[C@](O)(C(F)(F)F)C[C@H]1CC[C@@H]1[C@@H]2CC[C@]2(C)[C@@H](c3ccc(=O)oc3)CC[C@]12O", "note": "[Compound 6α]", "values": [{"measurement": "KC (equilibrium constant E•I ↔ E•I*)", "setting": "[1]", "value": 1.86}, {"measurement": "Kd", "setting": "[1]; [2]", "value": "22.7 ± 1.56", "unit": "µM"}, {"measurement": "Kd", "setting": "[1]; [3]", "value": "242 ± 35", "unit": "µM"}, {"measurement": "Ki", "setting": "[1]", "value": 42.2, "unit": "µM"}, {"measurement": "percentage of high-affinity component (Fhigh)", "setting": "[1]", "value": 65, "unit": "%"}, {"measurement": "percentage of low-affinity component (Flow)", "setting": "[1]", "value": 33, "unit": "%"}, {"measurement": "ratio of KDiss,high values α-isomer:β-isomer", "setting": "[1]", "value": 6.4}]}
{"smiles": "C[C@]12CC[C@@](O)(C(F)(F)F)C[C@H]1CC[C@@H]1[C@@H]2CC[C@]2(C)[C@@H](c3ccc(=O)oc3)CC[C@]12O", "note": "[Compound 6β]", "values": [{"measurement": "KC (equilibrium constant E•I ↔ E•I*)", "setting": "[1]", "value": 1.78}, {"measurement": "Kd", "setting": "[1]; [2]", "value": "3.56 ± 0.6", "unit": "µM"}, {"measurement": "Kd", "setting": "[1]; [3]", "value": "93.5 ± 67", "unit": "µM"}, {"measurement": "Ki", "setting": "[1]", "value": 6.3, "unit": "µM"}, {"measurement": "percentage of high-affinity component (Fhigh)", "setting": "[1]", "value": 64, "unit": "%"}, {"measurement": "percentage of low-affinity component (Flow)", "setting": "[1]", "value": 32, "unit": "%"}]}
